What all share (experiment): KINOMEscan (ScanMAX) kinase profiling
Type in all cases: binding

Experiment [1] addresses T1, panel of 468 kinases (Homo sapiens, UniProt P21860).
T1 construct: purchased KINOMEscan (ScanMAX) service
The note with it: ERBB3; 1 μM; read-out: % control.

In experiment [2] the target is T2, panel of 468 kinases (Homo sapiens, UniProt Q9Y5S2).
T2 construct: purchased KINOMEscan (ScanMAX) service
The note with it: MRCKB; 1 μM; read-out: % control.

For experiment [3], the target named is T3, panel of 468 kinases (Homo sapiens, UniProt Q9BWU1).
T3 construct: purchased KINOMEscan (ScanMAX) service
The note with it: CDK11; 1 μM; read-out: % control.

In experiment [4] the target is T4, panel of 468 kinases (Homo sapiens, UniProt P49137).
T4 construct: purchased KINOMEscan (ScanMAX) service
The note with it: MAPKAPK2; 1 μM; read-out: % control.

In experiment [5] the target is T5, panel of 468 kinases (Homo sapiens, UniProt P11362).
T5 construct: purchased KINOMEscan (ScanMAX) service
The note with it: FGFR1; 1 μM; read-out: % control.

The target in experiment [6] is T6, panel of 468 kinases (Homo sapiens, UniProt Q8TD19).
T6 construct: purchased KINOMEscan (ScanMAX) service
T6 sequence (Q8TD19 1-979): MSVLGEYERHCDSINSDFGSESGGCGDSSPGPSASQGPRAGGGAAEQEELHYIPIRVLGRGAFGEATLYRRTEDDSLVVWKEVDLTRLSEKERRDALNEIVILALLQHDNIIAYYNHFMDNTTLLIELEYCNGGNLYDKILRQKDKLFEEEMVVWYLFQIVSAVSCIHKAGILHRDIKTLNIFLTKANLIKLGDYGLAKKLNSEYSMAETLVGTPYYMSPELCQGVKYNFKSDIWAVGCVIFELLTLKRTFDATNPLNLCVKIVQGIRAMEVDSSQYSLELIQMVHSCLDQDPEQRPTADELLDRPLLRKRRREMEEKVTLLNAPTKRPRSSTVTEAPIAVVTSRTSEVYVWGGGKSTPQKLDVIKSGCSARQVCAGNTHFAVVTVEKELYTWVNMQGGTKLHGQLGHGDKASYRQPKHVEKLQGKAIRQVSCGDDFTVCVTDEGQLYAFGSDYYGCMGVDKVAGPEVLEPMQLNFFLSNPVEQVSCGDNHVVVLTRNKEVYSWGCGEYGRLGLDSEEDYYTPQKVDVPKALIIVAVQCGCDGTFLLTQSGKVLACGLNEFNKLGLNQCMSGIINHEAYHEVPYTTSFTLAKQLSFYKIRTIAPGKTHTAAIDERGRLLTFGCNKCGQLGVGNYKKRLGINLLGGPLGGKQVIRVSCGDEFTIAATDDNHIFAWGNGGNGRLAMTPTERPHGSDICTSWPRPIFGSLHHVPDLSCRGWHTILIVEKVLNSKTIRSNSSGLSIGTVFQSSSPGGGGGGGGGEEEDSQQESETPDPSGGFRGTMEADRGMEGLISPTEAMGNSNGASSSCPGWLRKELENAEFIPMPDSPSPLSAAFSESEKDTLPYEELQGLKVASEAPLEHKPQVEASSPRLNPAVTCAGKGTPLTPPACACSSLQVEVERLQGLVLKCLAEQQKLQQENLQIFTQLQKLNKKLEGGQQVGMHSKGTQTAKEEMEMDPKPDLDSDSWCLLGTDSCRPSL
The note with it: NEK9; 1 μM; read-out: % control.

The target of experiment [7] is T7, panel of 468 kinases (Homo sapiens, UniProt P07949, V804L).
T7 construct: purchased KINOMEscan (ScanMAX) service
The note with it: RET(V804L); 1 μM; read-out: % control.

Experiment [8] has as its target T8, panel of 468 kinases (Homo sapiens, UniProt Q6PHR2).
T8 construct: purchased KINOMEscan (ScanMAX) service
T8 sequence (Q6PHR2 1-472): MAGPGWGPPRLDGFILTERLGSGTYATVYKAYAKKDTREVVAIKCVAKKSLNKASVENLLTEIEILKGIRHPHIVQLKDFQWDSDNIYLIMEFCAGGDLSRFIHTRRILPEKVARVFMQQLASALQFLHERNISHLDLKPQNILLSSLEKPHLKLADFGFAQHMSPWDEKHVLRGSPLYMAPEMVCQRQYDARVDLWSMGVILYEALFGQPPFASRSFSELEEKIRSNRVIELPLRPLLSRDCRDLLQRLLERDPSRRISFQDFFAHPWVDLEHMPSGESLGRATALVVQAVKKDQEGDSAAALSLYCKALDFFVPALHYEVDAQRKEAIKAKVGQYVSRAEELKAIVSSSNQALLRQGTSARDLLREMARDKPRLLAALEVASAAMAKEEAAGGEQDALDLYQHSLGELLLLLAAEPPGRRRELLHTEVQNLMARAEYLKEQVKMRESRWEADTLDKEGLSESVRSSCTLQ
The note with it: ULK3; 1 μM; read-out: % control.

Structures are written as SMILES.

T1 sequence (P21860 20-1342): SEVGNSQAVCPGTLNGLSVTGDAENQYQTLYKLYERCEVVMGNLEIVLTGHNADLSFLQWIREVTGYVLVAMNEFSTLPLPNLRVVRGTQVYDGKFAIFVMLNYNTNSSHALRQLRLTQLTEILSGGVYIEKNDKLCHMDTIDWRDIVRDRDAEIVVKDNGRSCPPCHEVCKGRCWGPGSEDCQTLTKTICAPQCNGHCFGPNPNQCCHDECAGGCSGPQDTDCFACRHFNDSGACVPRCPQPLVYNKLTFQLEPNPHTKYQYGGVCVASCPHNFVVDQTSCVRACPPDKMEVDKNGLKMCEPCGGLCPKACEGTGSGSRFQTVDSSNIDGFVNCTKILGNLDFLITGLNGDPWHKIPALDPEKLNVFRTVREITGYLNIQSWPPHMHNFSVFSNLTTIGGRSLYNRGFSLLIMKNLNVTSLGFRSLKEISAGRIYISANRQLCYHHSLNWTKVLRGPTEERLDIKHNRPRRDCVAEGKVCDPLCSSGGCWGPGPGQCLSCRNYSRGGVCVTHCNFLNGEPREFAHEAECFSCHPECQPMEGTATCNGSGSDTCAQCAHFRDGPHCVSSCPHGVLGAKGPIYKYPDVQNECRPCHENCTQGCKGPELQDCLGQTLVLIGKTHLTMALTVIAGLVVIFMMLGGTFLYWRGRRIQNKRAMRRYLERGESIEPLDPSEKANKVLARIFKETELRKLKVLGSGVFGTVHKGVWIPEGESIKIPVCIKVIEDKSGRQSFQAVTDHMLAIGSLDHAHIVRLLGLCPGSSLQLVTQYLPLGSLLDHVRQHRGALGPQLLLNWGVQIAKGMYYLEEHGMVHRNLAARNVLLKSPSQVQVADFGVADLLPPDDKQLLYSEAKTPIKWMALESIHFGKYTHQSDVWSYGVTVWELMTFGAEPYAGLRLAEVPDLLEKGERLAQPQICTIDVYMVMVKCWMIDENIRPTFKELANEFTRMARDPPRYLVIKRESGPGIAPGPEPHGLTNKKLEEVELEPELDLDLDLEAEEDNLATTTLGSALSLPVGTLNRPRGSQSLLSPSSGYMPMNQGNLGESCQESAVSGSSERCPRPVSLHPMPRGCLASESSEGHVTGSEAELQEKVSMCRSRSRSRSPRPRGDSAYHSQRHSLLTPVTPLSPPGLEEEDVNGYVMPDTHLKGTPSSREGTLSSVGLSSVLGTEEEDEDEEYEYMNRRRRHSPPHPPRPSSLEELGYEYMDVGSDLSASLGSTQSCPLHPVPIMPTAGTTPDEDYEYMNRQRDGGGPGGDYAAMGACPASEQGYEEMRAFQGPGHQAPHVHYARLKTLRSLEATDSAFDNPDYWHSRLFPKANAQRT
T3 sequence (Q9BWU1 whole entry): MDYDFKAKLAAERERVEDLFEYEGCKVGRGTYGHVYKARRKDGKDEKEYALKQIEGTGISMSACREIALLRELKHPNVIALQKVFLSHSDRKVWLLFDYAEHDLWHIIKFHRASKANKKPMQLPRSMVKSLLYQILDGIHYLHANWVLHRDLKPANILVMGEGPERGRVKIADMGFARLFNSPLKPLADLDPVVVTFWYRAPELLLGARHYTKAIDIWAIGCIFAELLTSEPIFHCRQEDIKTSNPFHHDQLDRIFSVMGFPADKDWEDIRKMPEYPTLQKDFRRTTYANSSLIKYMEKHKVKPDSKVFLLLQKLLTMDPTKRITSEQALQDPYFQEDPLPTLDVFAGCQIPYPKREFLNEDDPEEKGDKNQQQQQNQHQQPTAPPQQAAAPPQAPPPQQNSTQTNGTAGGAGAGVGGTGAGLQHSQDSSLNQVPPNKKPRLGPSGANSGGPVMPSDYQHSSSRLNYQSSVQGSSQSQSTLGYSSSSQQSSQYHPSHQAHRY
T2 sequence (Q9Y5S2 whole entry): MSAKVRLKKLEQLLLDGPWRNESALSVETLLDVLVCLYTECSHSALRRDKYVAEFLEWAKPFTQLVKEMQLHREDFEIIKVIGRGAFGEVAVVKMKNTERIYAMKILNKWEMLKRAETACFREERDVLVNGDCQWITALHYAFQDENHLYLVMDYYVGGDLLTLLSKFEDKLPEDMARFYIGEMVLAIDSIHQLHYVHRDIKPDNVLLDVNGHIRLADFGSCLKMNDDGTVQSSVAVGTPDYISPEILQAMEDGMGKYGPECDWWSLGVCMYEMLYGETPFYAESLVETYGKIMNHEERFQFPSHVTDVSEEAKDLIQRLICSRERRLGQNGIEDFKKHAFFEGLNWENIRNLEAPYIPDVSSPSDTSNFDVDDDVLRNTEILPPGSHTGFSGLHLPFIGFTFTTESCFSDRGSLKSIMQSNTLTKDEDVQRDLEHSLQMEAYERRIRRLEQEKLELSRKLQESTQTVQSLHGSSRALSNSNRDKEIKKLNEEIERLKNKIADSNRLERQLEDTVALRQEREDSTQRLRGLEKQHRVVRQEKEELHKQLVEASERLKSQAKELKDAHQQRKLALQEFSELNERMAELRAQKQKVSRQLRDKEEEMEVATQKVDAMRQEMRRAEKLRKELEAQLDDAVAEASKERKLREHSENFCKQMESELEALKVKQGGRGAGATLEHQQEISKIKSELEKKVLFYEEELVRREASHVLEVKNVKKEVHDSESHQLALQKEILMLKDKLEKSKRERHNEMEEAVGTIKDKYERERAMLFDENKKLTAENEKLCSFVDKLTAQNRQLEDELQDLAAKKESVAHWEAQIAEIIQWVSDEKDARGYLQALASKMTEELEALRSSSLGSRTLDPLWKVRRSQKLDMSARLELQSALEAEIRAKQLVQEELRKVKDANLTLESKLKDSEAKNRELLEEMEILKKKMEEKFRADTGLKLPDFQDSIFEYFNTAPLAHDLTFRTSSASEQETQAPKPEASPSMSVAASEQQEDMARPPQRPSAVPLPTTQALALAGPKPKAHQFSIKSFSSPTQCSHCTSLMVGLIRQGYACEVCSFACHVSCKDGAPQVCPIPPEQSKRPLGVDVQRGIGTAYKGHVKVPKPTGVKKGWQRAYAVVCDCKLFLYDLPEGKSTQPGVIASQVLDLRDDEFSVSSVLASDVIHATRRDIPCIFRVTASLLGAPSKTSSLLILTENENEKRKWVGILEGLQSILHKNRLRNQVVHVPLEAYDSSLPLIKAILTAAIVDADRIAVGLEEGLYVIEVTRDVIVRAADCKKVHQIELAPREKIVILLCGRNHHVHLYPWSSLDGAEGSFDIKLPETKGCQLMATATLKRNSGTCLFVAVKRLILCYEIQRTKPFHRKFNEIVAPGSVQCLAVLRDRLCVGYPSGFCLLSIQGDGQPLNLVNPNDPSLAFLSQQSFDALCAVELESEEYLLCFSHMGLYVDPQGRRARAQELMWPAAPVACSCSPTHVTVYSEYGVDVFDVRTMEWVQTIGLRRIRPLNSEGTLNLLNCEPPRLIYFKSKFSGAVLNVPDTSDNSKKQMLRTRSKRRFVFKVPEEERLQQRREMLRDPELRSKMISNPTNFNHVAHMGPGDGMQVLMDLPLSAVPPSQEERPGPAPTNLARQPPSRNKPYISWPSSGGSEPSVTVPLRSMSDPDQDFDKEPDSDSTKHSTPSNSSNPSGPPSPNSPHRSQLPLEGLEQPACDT
T7 sequence (P07949 29-1114 V804L): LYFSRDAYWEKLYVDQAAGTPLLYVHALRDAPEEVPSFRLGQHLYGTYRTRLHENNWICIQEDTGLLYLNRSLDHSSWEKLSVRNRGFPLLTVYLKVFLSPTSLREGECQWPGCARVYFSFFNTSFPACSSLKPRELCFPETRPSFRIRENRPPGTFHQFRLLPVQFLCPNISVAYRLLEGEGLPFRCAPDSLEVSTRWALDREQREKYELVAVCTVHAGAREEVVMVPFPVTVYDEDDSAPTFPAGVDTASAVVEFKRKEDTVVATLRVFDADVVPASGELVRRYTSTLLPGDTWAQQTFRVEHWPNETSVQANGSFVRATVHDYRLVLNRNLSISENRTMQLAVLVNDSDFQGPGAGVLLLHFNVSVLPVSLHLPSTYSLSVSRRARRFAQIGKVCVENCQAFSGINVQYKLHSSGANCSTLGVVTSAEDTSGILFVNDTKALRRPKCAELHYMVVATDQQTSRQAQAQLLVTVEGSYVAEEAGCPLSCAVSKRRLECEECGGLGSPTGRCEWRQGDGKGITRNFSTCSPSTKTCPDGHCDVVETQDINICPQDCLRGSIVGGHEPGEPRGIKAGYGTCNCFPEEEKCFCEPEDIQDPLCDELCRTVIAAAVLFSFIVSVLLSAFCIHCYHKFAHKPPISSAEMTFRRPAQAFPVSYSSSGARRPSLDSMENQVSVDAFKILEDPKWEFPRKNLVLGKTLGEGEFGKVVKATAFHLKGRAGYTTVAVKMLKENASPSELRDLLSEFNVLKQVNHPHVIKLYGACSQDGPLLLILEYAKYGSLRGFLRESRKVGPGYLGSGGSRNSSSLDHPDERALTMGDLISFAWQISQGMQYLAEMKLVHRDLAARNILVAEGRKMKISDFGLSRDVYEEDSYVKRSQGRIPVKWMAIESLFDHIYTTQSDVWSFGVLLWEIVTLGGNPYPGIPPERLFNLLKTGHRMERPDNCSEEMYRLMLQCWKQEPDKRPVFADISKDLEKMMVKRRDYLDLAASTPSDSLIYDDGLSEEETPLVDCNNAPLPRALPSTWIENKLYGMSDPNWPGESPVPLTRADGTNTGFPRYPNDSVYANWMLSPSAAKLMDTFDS
T4 sequence (P49137 whole entry): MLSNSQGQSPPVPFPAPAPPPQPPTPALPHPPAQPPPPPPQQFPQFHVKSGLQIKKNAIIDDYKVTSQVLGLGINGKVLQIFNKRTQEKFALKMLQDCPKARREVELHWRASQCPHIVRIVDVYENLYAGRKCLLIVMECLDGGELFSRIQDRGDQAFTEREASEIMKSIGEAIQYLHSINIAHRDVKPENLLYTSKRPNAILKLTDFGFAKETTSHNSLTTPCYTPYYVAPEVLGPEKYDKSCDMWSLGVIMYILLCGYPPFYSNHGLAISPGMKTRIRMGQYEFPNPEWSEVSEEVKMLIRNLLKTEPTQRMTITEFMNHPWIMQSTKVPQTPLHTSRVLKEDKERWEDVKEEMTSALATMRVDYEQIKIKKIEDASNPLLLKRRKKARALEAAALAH

In the case of `CNc1nc(Nc2ccc(S(=O)(=O)N3CCC(N4CCOCC4)CC3)cc2OC)nc2[nH]cc(Cl)c12` [Compound 12, 5-chloro-N2-(2-methoxy-4-((4-morpholinopiperidin-1-yl)sulfonyl)phenyl)-N4-methyl-7H-pyrrolo[2,3-d]pyrimidine-2,4-diamine], the remaining binding at 1 µM on panel of 468 kinases [1] is 38%; on panel of 468 kinases [2], 100%; at panel of 468 kinases [3], 100%; at panel of 468 kinases [4], 72%; on panel of 468 kinases [5], 89%; at panel of 468 kinases [6] it was 100%. Moreover, the values for the remaining binding at 1 µM on panel of 468 kinases [7] and on panel of 468 kinases [8] were 89% and 65%, respectively.

Consider `CNc1nc(Nc2ccc(C(=O)N3CCC(N4CCOCC4)CC3)c3c2OCO3)nc2[nH]cc(Cl)c12` [Compound 75, (7-((5-chloro-4-(methylamino)-7H-pyrrolo[2,3-d]pyrimidin-2-yl)amino)benzo[d][1,3]dioxol-4-yl)(4-morpholinopiperidin-1-yl)methanone], for which the remaining binding at 1 µM was 38% at panel of 468 kinases [1]; 100% on panel of 468 kinases [2]; 98% at panel of 468 kinases [3]; 31% at panel of 468 kinases [4]; 94% at panel of 468 kinases [5]; 100% on panel of 468 kinases [6]. Further, the remaining binding at 1 µM is 42% on panel of 468 kinases [7] and 7.6% on panel of 468 kinases [8].

Regarding `CNc1nc(Nc2ccc(P3(=O)CCN(C4CCOCC4)CC3)cc2OC)nc2[nH]cc(Cl)c12` [Compound 77, 4-(4-((5-chloro-4-(methylamino)-7H-pyrrolo[2,3-d]pyrimidin-2-yl)amino)-3-methoxyphenyl)-1-(tetrahydro-2H-pyran-4-yl)-1,4-azaphosphinane 4-oxide], the remaining binding at 1 µM came to 35% at panel of 468 kinases [1]; 100% at panel of 468 kinases [2]; 100% on panel of 468 kinases [3]; 100% at panel of 468 kinases [4]; 100% on panel of 468 kinases [5]; 100% on panel of 468 kinases [6]. Moreover, the results for the remaining binding at 1 µM on panel of 468 kinases [7] and at panel of 468 kinases [8] were 100% and 65%, respectively.

For the origin of these results see US12479847B2 (DANA-FARBER CANCER INSTITUTE, INC., priority 2019, dated 2025).
